Laboratory results taken from US20210009564A1, “CALPAIN MODULATORS AND THERAPEUTIC USES THEREOF” (BLADE THERAPERTICS, INC., priority 2018, published 2021).

Columns and labels:
Human Calpain 1/NS1 = molecular target: T1, Human Calpain 1/NS1 (Homo sapiens, UniProt P07384); assay: Calpain inhibition, continuous fluorescence (FRET substrate) assay, calpain 1; type: biochemical; conditions: SensoLyte 520 FRET substrate, 25C
T1 sequence (P07384 1-714): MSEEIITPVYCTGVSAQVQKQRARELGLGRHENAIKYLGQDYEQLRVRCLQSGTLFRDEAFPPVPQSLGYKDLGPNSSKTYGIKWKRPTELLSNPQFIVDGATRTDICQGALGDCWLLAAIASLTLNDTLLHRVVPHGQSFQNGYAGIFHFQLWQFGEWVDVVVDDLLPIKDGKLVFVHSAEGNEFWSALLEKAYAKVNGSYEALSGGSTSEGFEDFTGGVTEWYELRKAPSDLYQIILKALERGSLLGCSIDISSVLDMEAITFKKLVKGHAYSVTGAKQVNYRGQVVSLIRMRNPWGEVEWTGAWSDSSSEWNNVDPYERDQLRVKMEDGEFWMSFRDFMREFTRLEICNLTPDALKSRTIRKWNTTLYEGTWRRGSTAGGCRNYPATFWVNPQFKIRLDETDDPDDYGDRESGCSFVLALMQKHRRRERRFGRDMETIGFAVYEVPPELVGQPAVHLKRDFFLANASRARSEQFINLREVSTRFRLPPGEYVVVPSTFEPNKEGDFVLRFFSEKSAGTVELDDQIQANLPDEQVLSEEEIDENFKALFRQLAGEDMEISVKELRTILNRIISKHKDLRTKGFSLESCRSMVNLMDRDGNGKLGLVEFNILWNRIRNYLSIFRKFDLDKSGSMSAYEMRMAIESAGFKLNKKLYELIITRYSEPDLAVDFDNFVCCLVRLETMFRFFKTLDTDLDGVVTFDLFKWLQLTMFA
T1 sequence (P04632 1-268 partner): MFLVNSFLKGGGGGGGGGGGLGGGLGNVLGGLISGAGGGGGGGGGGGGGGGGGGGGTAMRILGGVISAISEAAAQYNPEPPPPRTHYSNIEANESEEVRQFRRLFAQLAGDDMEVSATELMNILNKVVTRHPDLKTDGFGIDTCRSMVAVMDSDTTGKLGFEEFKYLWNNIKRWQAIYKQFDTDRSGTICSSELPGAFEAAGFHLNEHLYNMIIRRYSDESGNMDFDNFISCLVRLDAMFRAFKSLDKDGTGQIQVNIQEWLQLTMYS
Procedure: (§1) Calpain 1, 2, and 9 activity and inhibition thereof was assessed by means of a continuous fluorescence assay. The SensoLyte 520 Calpain substrate (Anaspec Inc) was optimized for detecting calpain activity. This substrate contains an internally quenched 5-FAM/QXLTM 520 FRET pair. Calpains 1, 2, and 9 cleave the FRET substrate into two separate fragments resulting in an increase of 5-FAM fluorescence that is proportional to calpain activity Assays were typically setup in black 384-well plates using automated liquid handling as follows. Calpain assay base buffer typically contains 50 mM Tris, pH 7.5, 100 mM NaCl and 1 mM DTT. Inhibitors were serially diluted in DMSO and used to setup 2× mixtures with calpains in the aforementioned buffer. After incubation at ambient temperature (25C), the reaction was initiated by adding a 2× mix of the fluorescent peptide substrate and CaCl2) (required for in-situ calpain activation) in the same buffer. Reaction progress curve data were typically collected for 10 min using excitation/emission wavelengths of 490 nm/520 nm on SpectraMax i3× or the FLIPR-Tetra plate readers (Molecular Devices Inc). Reaction rates were calculated from progress curve slopes typically over 1-5 min. Dose response curves (rate vs. log inhibitor concentration) were typically fit to a 4-parameter logistic function to extract IC50 values.

Human Calpain 2/NS1 = molecular target: T2, Human Calpain 2/NS1 (Homo sapiens, UniProt P17655); assay: Calpain inhibition, continuous fluorescence (FRET substrate) assay, calpain 2; type: biochemical; conditions: SensoLyte 520 FRET substrate, 25C
T2 sequence (P17655 1-700): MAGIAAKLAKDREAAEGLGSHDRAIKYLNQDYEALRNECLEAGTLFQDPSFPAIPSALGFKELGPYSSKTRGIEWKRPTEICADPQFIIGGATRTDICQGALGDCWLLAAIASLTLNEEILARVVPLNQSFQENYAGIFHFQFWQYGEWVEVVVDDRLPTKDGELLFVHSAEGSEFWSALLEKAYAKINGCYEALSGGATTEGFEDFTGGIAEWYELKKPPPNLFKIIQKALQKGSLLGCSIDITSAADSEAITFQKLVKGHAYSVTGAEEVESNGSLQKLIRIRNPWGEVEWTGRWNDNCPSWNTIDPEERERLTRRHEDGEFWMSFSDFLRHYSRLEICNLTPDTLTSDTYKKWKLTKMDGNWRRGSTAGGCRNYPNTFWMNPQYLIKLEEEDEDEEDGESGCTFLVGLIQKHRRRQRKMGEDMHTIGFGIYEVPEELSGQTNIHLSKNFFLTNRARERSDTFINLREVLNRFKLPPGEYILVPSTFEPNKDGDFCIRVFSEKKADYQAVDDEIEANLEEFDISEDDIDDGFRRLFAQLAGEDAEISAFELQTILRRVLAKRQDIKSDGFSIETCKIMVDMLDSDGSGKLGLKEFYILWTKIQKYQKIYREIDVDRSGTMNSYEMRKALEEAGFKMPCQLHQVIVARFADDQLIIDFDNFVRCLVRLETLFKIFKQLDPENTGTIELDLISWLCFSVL
T2 sequence (P04632 1-268 partner): T1 sequence (P04632 1-268 partner)
Procedure: as §1

Human Calpain 9/NS1 = molecular target: T3, Human Calpain 9/NS1 (Homo sapiens, UniProt O14815); assay: Calpain inhibition, continuous fluorescence (FRET substrate) assay, calpain 9; type: biochemical; conditions: SensoLyte 520 FRET substrate, 25C
T3 sequence (O14815 1-690): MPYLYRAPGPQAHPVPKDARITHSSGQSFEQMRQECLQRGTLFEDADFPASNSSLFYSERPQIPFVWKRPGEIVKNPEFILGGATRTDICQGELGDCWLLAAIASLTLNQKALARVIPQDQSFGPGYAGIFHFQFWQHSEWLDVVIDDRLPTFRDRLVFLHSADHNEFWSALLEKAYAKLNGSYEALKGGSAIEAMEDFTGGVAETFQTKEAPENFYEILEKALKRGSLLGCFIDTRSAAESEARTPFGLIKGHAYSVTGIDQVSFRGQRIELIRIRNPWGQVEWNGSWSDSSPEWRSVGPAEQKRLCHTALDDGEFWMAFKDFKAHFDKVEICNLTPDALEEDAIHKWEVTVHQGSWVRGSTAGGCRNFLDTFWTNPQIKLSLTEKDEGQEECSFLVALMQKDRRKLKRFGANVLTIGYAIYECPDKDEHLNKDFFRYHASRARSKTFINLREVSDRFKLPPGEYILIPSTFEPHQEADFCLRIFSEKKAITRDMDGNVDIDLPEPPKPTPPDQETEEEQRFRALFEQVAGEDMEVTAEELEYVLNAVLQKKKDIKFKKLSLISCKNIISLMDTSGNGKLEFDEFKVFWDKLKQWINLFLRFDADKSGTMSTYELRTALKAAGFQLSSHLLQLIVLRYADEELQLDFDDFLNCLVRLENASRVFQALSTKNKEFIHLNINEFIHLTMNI
T3 sequence (P04632 1-268 partner): T1 sequence (P04632 1-268 partner)
Procedure: as §1

[1] = tested on: Calpain activity in SH-SY5Y cells; assay: SH-SY5Y Suc-LLVY-AMC fluorescence assay; type: cell-based; conditions: Homo sapiens; SH-SY5Y cells, 100 uM Suc-LLVY-AMC; read-out: SH-SY5Y + AMC IC50
[2] = tested on: Calpain activity in SH-SY5Y cells; assay: SH-SY5Y spectrin breakdown product (SBDP-150) western blot assay; type: cell-based; conditions: Homo sapiens; SH-SY5Y cells, 25 uM A23187, SBDP-150 western blot; read-out: SH-SY5Y Spectrin IC50

SMILES	IC50 (Human Calpain 1/NS1) [µM]	IC50 (Human Calpain 2/NS1) [µM]	IC50 (Human Calpain 9/NS1) [µM]	IC50 [1] [µM]	IC50 [2] [µM]
O=C(NC(Cc1ccccc1)C(=O)CO)c1nsnc1-c1ccccc1 (centres unmarked) [Compound 111, N-(4-HYDROXY-3-OXO-1-PHENYLBUTAN-2-YL)-4-PHENYL-1,2,5-THIADIAZOLE-3-CARBOXAMIDE]	3 to 10	3 to 10	> 10	> 25	–
Cc1nc(-c2c(F)cccc2F)c(C(=O)NC(Cc2ccccc2)C(=O)C(=O)O)o1 (centres unmarked) [Compound 108, 3-(4-(2,6-DIFLUOROPHENYL)-2-METHYLOXAZOLE-5-CARBOXAMIDO)-2-OXO-4-PHENYLBUTANOIC ACID]	< 3	< 3	< 3	< 10	–
O=C(O)C(=O)C(Cc1ccccc1)NC(=O)c1nsnc1-c1cccc2c1OC(F)(F)O2 (centres unmarked) [Compound 107, 3-(4-(2,2-DIFLUOROBENZO[D][1,3]DIOXOL-4-YL)-1,2,5-THIADIAZOLE-3-CARBOXAMIDO)-2-OXO-4-PHENYLBUTANOIC ACID]	< 3	< 3	< 3	10 to 25	–
O=C(O)C(=O)C(Cc1ccccc1)NC(=O)c1nsnc1-c1cccc2oc(=O)[nH]c12 (centres unmarked) [Compound 106, 2-OXO-3-4-(2-OXO-2,3-DIHYDROBENZO[D]OXAZOL-4-YL)-1,2,5-THIADIAZOLE-3-CARBOXAMIDO)-4-PHENYLBUTANOIC ACID]	< 3	< 3	< 3	10 to 25	–
CN(C)NC(=O)C(=O)C(Cc1ccccc1)NC(=O)c1nsnc1-c1ccccc1 (centres unmarked) [Compound 109, N-(4-(2,2-DIMETHYLHYDRAZINEYL)-3,4-DIOXO-1-PHENYLBUTAN-2-YL)-4-PHENYL-1,2,5-THIADIAZOLE-3-CARBOXAMIDE]	< 3	< 3	< 3	10 to 25	–
CONC(=O)C(=O)C(Cc1ccccc1)NC(=O)c1cccnc1-n1ccc(-c2ccccc2)n1 (centres unmarked) [Compound 113, N-(4-(METHOXYAMINO)-3,4-DIOXO-1-PHENYLBUTAN-2-YL)-2-(3-PHENYL-1H-PYRAZOL-1-YL)NICOTINAMIDE]	< 3	< 3	< 3	10 to 25	–

Other lines, results leading:

IC50 (Human Calpain 1/NS1) [µM]	IC50 (Human Calpain 2/NS1) [µM]	IC50 (Human Calpain 9/NS1) [µM]	IC50 [1] [µM]	IC50 [2] [µM]	SMILES
< 3	< 3	< 3	> 25	–	CC(C)n1c(=O)oc2c(-c3nn(C)cc3C(=O)NC(Cc3ccccc3)C(=O)C(N)=O)cccc21 (centres unmarked) [Compound 114, N-(4-AMINO-3,4-DIOXO-1-PHENYLBUTAN-2-YL)-3-(3-ISOPROPYL-2-OXO-2,3-DIHYDROBENZO[D]OXAZOL-7-YL)-1-METHYL-1H-PYRAZOLE-4-CARBOXAMIDE]
< 3	< 3	< 3	–	10 to 25	Cc1nc(-c2c(F)cccc2F)c(C(=O)NC(Cc2ccccc2)C(=O)C(N)=O)o1 (centres unmarked) [Compound 76, N-(4-AMINO-3,4-DIOXO-1-PHENYLBUTAN-2-YL)-4-(2,6-DIFLUOROPHENYL)-2-METHYLOXAZOLE-5-CARBOXAMIDE]
< 3	< 3	< 3	–	< 10	Cc1nc(-c2ccccc2F)c(C(=O)NC(Cc2ccc(F)cc2)C(=O)C(N)=O)o1 (centres unmarked) [Compound 73, N-(4-AMINO-1-(4-FLUOROPHENYL)-3,4-DIOXOBUTAN-2-YL)-4-(2-FLUOROPHENYL)-2-METHYLOXAZOLE-5-CARBOXAMIDE]
< 3	< 3	< 3	–	10 to 25	COc1cccc(-c2nc(C)oc2C(=O)NC(Cc2ccccc2)C(=O)C(N)=O)c1F (centres unmarked) [Compound 75, N-(4-AMINO-3,4-DIOXO-1-PHENYLBUTAN-2-YL)-4-(2-FLUORO-3-METHOXYPHENYL)-2-METHYLOXAZOLE-5-CARBOXAMIDE]
< 3	< 3	< 3	> 25	–	Cn1cc(C(=O)NC(Cc2ccccc2)C(=O)C(N)=O)c(-c2cccc3c2OC(C)(C)O3)n1 (centres unmarked) [Compound 112, N-(4-AMINO-3,4-DIOXO-1-PHENYLBUTAN-2-YL)-3-(2,2-DIMETHYLBENZO[D][1,3]DIOXOL-4-YL)-1-METHYL-1H-PYRAZOLE-4-CARBOXAMIDE]
< 3	< 3	< 3	< 10	–	NC(=O)C(=O)C(Cc1ccccc1)NC(=O)c1nsnc1-c1cccc2c1CC(=O)N2 (centres unmarked) [Compound 115, N-(4-AMINO-3,4-DIOXO-1-PHENYLBUTAN-2-YL)-4-(2-OXOINDOLIN-4-YL)-1,2,5-THIADIAZOLE-3-CARBOXAMIDE]
3 to 10	< 3	< 3	–	> 25	Cn1cc(C(=O)NC(Cc2ccccc2)C(=O)C(N)=O)c(-c2cccc3cnn(C)c23)n1 (centres unmarked) [Compound 33, N-(4-AMINO-3,4-DIOXO-1-PHENYLBUTAN-2-YL)-1-METHYL-3-(1-METHYL-1H-INDAZOL-7-YL)-1H-PYRAZOLE-4-CARBOXAMIDE]
< 3	< 3	< 3	–	> 25	COC(=O)C(=O)C(Cc1ccccc1)NC(=O)c1cn(C)nc1-c1cccc(F)c1 (centres unmarked) [Compound 74, METHYL-3-(3-(3-FLUOROPHENYL)-1-METHYL-1H-PYRAZOLE-4-CARBOXAMIDO)-2-OXO-4-PHENYLBUTANOATE]
